Data taken from patent publication US20090082304A1, “Methods of Treating Hematological Malignancies with Nucleoside Analog Drugs” (NORTHWESTERN UNIVERSITY, priority 2004, published 2009).

How the values were obtained:
Format in all cases: cell-based
Akt kinase = assay: Immunoblot of phospho-Akt in MM.1 S cells; details: 10 μM
Protocol: 5×10^6 were cells treated with 10 μM 8-NH2-Ado for the indicated times and harvested. Cell pellets were washed with cold phosphate-buffered saline (PBS; 8.1 g NaCl, 1.14 g Na2HPO4, 0.22 g KCl, and 0.25 g/L KH2PO4) and incubated with lysis buffer (50 mM HEPES, 150 mM NaCl, 1.5 mM MgCl2, 1 mM EDTA pH 8.0, 100 mM NaFI, 10 mM Na Pyrophosphate, 500 μM PMSF, 0.5% Triton X-100, 10% glycerol) at 4° C. for one hour. Lysates were centrifuged at 4° C. for 1 minute at 9000×g, and the supernatants were collected and stored at −20° C. Protein concentration was determined by Bio-Rad protein assay (BioRad Laboratories, Hercules, Calif.). Protein, at a concentration of 30 μg, was mixed with sample buffer (125 mM Tris, pH 6.8, 4% SDS, 20% glycerol, 100 mM Dithiothreitol (DTT), and 0.05% bromophenol blue), and fractionated on a pre-cast 8-16% Tris-Glycine gel (Invitrogen/Novex, Carlsbad, Calif.). Proteins were then transferred to a Polyvinylidene Fluoride (PVDF) membrane (Immobilon-P, Millipore, Bedford, Mass.): Following protein transfer, membranes were blocked with 5% non-fat milk in PBS-T (PBS with 0.1% Tween), incubated with the primary antibody overnight at 4° C. and subsequently with horseradish peroxidase linked secondary antibody (Amersham, Arlington Heights, Ill.). Blots were developed using ECL Plus Chemiluminescent Western Blotting Detection reagent (Amersham, Arlington Heights, Ill.) and the signal was visualized with X-ray film (Hyperfilm, Amersham, Arlington Heights, Ill.). For reprobing purposes, blots were stripped using Restore Western Blot Stripping Buffer from Pierce Biotechnology (Rockford, Ill.). Phospho-MKK3/6 (Ser189/207), phospho-p38 (Thr180/Tyr182), phospho-ATF-2 (Thr69/71), phospho-c-Raf (Ser259), phospho-MEK1/2 (Ser217/221), total MEK1/2, phospho-ERK1/2 (Thr202/Tyr204), total ERK1/2, phospho-p90RSK (Ser380), total RSK, phospho-PDK1 (Ser241), total PDKI, phospho-PTEN (Ser380), total PTEN, phospho-Akt (Ser473), total Akt, phospho-GSK-3β (Ser9), total GSK-3β, phospho-FKHRLI (Thr32)/-FKHR (Thr24), phospho-FKHR (Ser256) primary antibodies were obtained from Cell Signaling Technology (Beverly, Mass.). Total MKK3, total MKK6, total p38, total ATF-2, total c-Raf, total FKHR, total FKHRLI, phospho-JNK and total JNK were purchased from Santa Cruz Biotechnology (Santa Cruz, Calif.). Caspase 3, caspase 9, and PARP antibodies were obtained from Pharmingen (San Diego, Calif.) and anti-MKP1 from Upstate (Lake Placid, N.Y.). Anti-caspase 8 mouse serum was a generous gift of Dr. Marcus Peter (University of Chicago).
MM.1 S cells were exposed to 10 μM 8-NH2-Ado for 0, 0.5, 1, 2, 4 and 6 hours, after which cells were lysed as previously (Example 2). 30 μg of protein was separated by gel electrophoresis, transferred to PVDF membrane, and probed with phosphorylation-specific antibodies to MKK3/6, p38 MAPK, ATF-2, MEK1/2, ERK1/2, p90RSK, JNK1, PDK1, Akt, FKHRL1 and GSK-3β.
MM. I S cells were treated with 10 μM 8-chloro-adenosine for 0, 0.5, 1, 2, 4 or 6 hours or 10 μM of cytarabine, fludarabine, gemcitabine or 8-amino-adenosine for 4 hours. Cells were lysed as previously described and 30 μg of protein was separated by gel electrophoresis, transferred to PVDF membrane, and probed with phospho-p38 MAPK (Thr180/Tyr182) antibody.
MM.1 S cells were grown in dextrose-free media and treated with 2 μM Antimycin A, 5 mM 2-DOG, and varying concentrations of dextrose for 90 minutes. Cellular ATP levels were determined using triplicate samples in a luciferase based assay and are expressed here as a percentage of untreated control.

caspase 9 = assay: Caspase 9 activation immunoblot in MM.1 S cells; details: 10 μM
Protocol: 5×10^6 were cells treated with 10 μM 8-NH2-Ado for the indicated times and harvested. Cell pellets were washed with cold phosphate-buffered saline (PBS; 8.1 g NaCl, 1.14 g Na2HPO4, 0.22 g KCl, and 0.25 g/L KH2PO4) and incubated with lysis buffer (50 mM HEPES, 150 mM NaCl, 1.5 mM MgCl2, 1 mM EDTA pH 8.0, 100 mM NaFI, 10 mM Na Pyrophosphate, 500 μM PMSF, 0.5% Triton X-100, 10% glycerol) at 4° C. for one hour. Lysates were centrifuged at 4° C. for 1 minute at 9000×g, and the supernatants were collected and stored at −20° C. Protein concentration was determined by Bio-Rad protein assay (BioRad Laboratories, Hercules, Calif.). Protein, at a concentration of 30 μg, was mixed with sample buffer (125 mM Tris, pH 6.8, 4% SDS, 20% glycerol, 100 mM Dithiothreitol (DTT), and 0.05% bromophenol blue), and fractionated on a pre-cast 8-16% Tris-Glycine gel (Invitrogen/Novex, Carlsbad, Calif.). […]
MM.1 S cells were exposed to 10 μM 8-NH2-Ado for 0, 0.5, 1, 2, 4 or 6 hours, after which cells were lysed as previously described. […] Total protein levels were also assessed to ensure equal loading and transfer (data not shown). […]

GSK-3β = assay: Immunoblot of phospho-GSK-3β in MM.1 S cells; details: 10 μM
Protocol: 5×10^6 were cells treated with 10 μM 8-NH2-Ado for the indicated times and harvested. Cell pellets were washed with cold phosphate-buffered saline (PBS; 8.1 g NaCl, 1.14 g Na2HPO4, 0.22 g KCl, and 0.25 g/L KH2PO4) and incubated with lysis buffer (50 mM HEPES, 150 mM NaCl, 1.5 mM MgCl2, 1 mM EDTA pH 8.0, 100 mM NaFI, 10 mM Na Pyrophosphate, 500 μM PMSF, 0.5% Triton X-100, 10% glycerol) at 4° C. for one hour. Lysates were centrifuged at 4° C. for 1 minute at 9000×g, and the supernatants were collected and stored at −20° C. Protein concentration was determined by Bio-Rad protein assay (BioRad Laboratories, Hercules, Calif.). Protein, at a concentration of 30 μg, was mixed with sample buffer (125 mM Tris, pH 6.8, 4% SDS, 20% glycerol, 100 mM Dithiothreitol (DTT), and 0.05% bromophenol blue), and fractionated on a pre-cast 8-16% Tris-Glycine gel (Invitrogen/Novex, Carlsbad, Calif.). Proteins were then transferred to a Polyvinylidene Fluoride (PVDF) membrane (Immobilon-P, Millipore, Bedford, Mass.): Following protein transfer, membranes were blocked with 5% non-fat milk in PBS-T (PBS with 0.1% Tween), incubated with the primary antibody overnight at 4° C. and subsequently with horseradish peroxidase linked secondary antibody (Amersham, Arlington Heights, Ill.). […]

MM.1 S cells = assay: Cell cycle analysis by flow cytometry (subG1 fraction); details: 10 μM, up to 4 hours
Protocol: MM1 S cells were incubated with 10 μM 8-NH2-adenosine 0.5, 1, 2, 4 or 24 hours. To determine the distribution of cells within the cell cycle, I×10^6 MM. I S cells were pelleted (500×g for 5 minutes at 4° C.), and washed twice in ice-cold PBS, fixed in ice-cold 70% ethanol, and stored at 4° C. until analyzed. Before analysis by flow cytometry, the fixed cells were pelleted, washed in PBS, and resuspended in ice-cold flow buffer (PBS containing 0.5% Tween 20, 15 μg/mL propidium iodide, and 5 μg/mL DNase-free RNase). The stained cells were analyzed using an Epics Profile II flow cytometer (Coulter Electronics, Inc., Hialeah, Fla.). FIG. 2 provides the results of this experiment. To ascertain whether the changes in phosphorylation levels of these key signaling molecules is a direct result of cell death, parallel cultures were assessed for cellular viability by cell cycle analysis. Cells undergoing apoptosis have a reduced DNA content caused by cleavage and loss of small DNA fragments. Therefore, apoptotic cells are identified as those cells in the subG1 fraction of the cell cycle.

STAT proteins = assay: Phosphorylation status of STAT proteins

Nc1ncnc2c1nc(N)n2[C@@H]1O[C@H](CO)[C@@H](O)[C@H]1O [8-NH2-Ado, 8-amino-adenosine]
phosphorylation of Akt (Akt kinase; 4 hours, data not shown): dramatic loss of phosphorylation
Phospho-Akt levels (Akt kinase; by 2 hours): decrease significantly
Phospho-Akt levels (Akt kinase; eventually (after 2 hours)): decline further to negligible levels
time at which cleaved and activated caspase 9 appears (caspase 9): 2 to 4 h
Phospho-OSK-3p levels (GSK-3β; by 2 hours): diminish
Phospho-OSK-3p levels (GSK-3β; by 6 hours): negligible
subG1 fraction versus untreated cells (MM.1 S cells): no differences
phosphorylation status of the STAT proteins (STAT proteins): unaltered
